# Results from patent US5418232A, “Diazabicycloalkene derivatives” (Daiichi Pharmaceutical Co., Ltd., priority 1992, dated 1995).
# What was measured:
# [1] = tested on: spontaneously hypertensive rats; assay: Antihypertensive activity in spontaneously hypertensive rats (oral, tail-cuff); type: in vivo, rat
# Protocol: Male spontaneously hypertensive rats (16 to 20-week-old; body weight: 300-400 g) fed ab lib. were forceably given oral administration of a test compound suspended in 0.5% (w/v) carboxymethyl cellulose aqueous solution. After 1, 2, 4, 6, 8, 24, 30 or 48 hours from the administration, the systolic blood pressure was measured by a tail-cuff method described in Arzneimittel-Forschung, Vol. 18, pp. 1285-1287 (1968)).
# The antihypertensive activity of the test compound was obtained as an effective dose for reducing blood pressure by 50 mmHg (ED50mmHg). Further, the time of onset of the maximum activity and the maximum increase in heart rate at a dose for reducing blood pressure by 50 to 60 mmHg were measured.
# The statistical difference between a test compound and EMD57283 was analyzed by the Student's t-test.
# [2] = tested on: spontaneously hypertensive rats; assay: Effect on renal blood flow (Doppler probe); type: in vivo, rat; details: for Increase in Renal Blood Flow 1 Hr after Administration: oral, dose which reduced blood pressure by about 50 mmHg; for activity in increasing the renal blood flow vs reference drug (in words): vs EMD57283
# Protocol: Twenty-week-old male spontaneously hypertensive rats (body weight: 350-430 g) were anesthetized with pentobarbital (30 mg/kg, i.p.). An incision was made in the abdomen on the left side, and a Doppler probe for blood flow measurement was fitted to the left renal artery, and the code (wire lead) of the probe was passed under the back skin and taken out from the back of the neck. After 1 week from the operation, the code of the probe was connected to a Doppler blood flow meter to start measurement of the renal blood flow. After the renal blood flow reached to a steady state, a test compound was orally administered, and changes in renal blood flow were observed up to 9 hours. The test compound was used at a dose which reduced blood pressure by about 50 mmHg.
# Acute toxicity = type: in vivo; details: mouse, in vivo, po
# male mice = assay: Acute toxicity; type: in vivo; details: oral 2 g/kg
# [3] = tested on: spontaneously hypertensive rats; assay: Blood pressure fall after i.v. compound with or without glibenclamide pretreatment; type: in vivo, rat
# Protocol: 2) Twenty-two-week-old male spontaneously hypertensive rats (body weight, 350-420 g) were given an intravenous injection of 30 mg/kg of glibenclamide (Sigma Chemical Company) having an antagonistic activity against potassium channel openers or, as a control, a solvent.
# [4] = dose reducing blood pressure by 50 to 60 mmHg
Compound,antihypertensive activity (in words) [1],duration of activity (in words) [1],"ED (50 mmHg) ([1]; Rattus norvegicus, systolic blood pressure, read-out: ED50mmHg (effective dose for reducing blood pressure by 50 mmHg))","Max. increase of Heat Rate [1, 4]","Time for Onset of Max. Activity [1, 4]",Increase in Renal Blood Flow 1 Hr after Administration [2],activity in increasing the renal blood flow vs reference drug (in words) [2],LD50 at 336 h (Acute toxicity),safety (in words) (male mice),"Average Blood Pressure Fall ([3]; 1 Hr., 0.1 mg/kg i.v. + Glibenclamide 30 mg/kg i.v.)","Average Blood Pressure Fall ([3]; 1 Hr., 0.1 mg/kg i.v. + solvent)","Average Blood Pressure Fall ([3]; 2 Hrs., 0.1 mg/kg i.v. + Glibenclamide 30 mg/kg i.v.)","Average Blood Pressure Fall ([3]; 2 Hrs., 0.1 mg/kg i.v. + solvent)","Average Blood Pressure Fall ([3]; 3 Hrs., 0.1 mg/kg i.v. + Glibenclamide 30 mg/kg i.v.)","Average Blood Pressure Fall ([3]; 3 Hrs., 0.1 mg/kg i.v. + solvent)","Average Blood Pressure Fall ([3]; 4 Hrs., 0.1 mg/kg i.v. + Glibenclamide 30 mg/kg i.v.)","Average Blood Pressure Fall ([3]; 4 Hrs., 0.1 mg/kg i.v. + solvent)","potassium channel opening activity (in words) ([3]; conclusion from Table 6, glibenclamide antagonism)"
"CC1(C)Oc2ccc(C#N)cc2[C@@H](OC2=NN(Cc3ccccc3Cl)C(=O)C3CC23)[C@@H]1O (relative stereo) [Example 33, (3S,4R,1'R*,6'S*)-4-(3-(2-chlorobenzyl)-2-oxo-3,4-diazabicyclo[4.1.0]hept-4-en-5-yloxy)-3,4-dihydro-2,2-dimethyl-3-hydroxy-2H-1-benzopyran-6-carbonitrile]",potent antihypertensive activity,long duration of activity,0.031 mg/kg,19.4 ± 3.1%,6.6 ± 0.5 h,14.5 ± 4.0%,more potent activity in increasing the renal blood flow than the reference drug,> 2000 mg/kg,highly safe,–,–,–,–,–,–,–,–,–
"CN1N=C(O[C@@H]2c3cc(C#N)ccc3OC(C)(C)[C@H]2O)C2CC2C1=O (relative stereo) [Example 2, 3,4-trans-3,4-dihydro-2,2-dimethyl-3-hydroxy-4-(3-methyl-2-oxo-3,4-diazabicyclo[4.1.0]hept-4-en-5-yloxy)-2H-1-benzopyran-6-carbonitrile]",–,–,–,–,–,–,–,> 2000 mg/kg,highly safe,–,–,–,–,–,–,–,–,–
"CC1(C)Oc2ccc(C#N)cc2[C@@H](OC2=NN(Cc3ccccc3)C(=O)C3CC23)[C@@H]1O (relative stereo) [Example 1, 3,4-trans-4-(3-Benzyl-2-oxo-3,4-diazabicyclo[4.1.0]hept-4-en-5-yloxy)-3,4-dihydro-2,2-dimethyl-3-hydroxy-2H-1-benzopyran-6-carbonitrile]",–,–,–,–,–,34.0 ± 6.1%,more potent activity in increasing the renal blood flow than the reference drug,> 2000 mg/kg,highly safe,15.9 ± 3.7 mmHg,41.4 ± 6.1 mmHg,22.0 ± 5.7 mmHg,50.4 ± 4.4 mmHg,28.0 ± 5.3 mmHg,55.9 ± 4.3 mmHg,26.9 ± 5.7 mmHg,55.1 ± 4.7 mmHg,possesses potassium channel opening activity
